Results as given in patent US20110173718A1, “HERBICIDE TOLERANT PLANTS” (SYNGENTA CROP PROTECTION, INC., priority 2008, published 2011).
“And” between values parts separate entries of the source, which are not always exact repeats. Equal entries are not always repeated.

Legend:
Format in all cases: in vivo
[1] = system: wild-type (WT) Samsun tobacco; assay: Glasshouse spray test, wild-type tobacco; conditions: for % damage at 7 DAT: WT Samsun, individual plants; for % damage observed 16 DAT: w/t tobacco; for score on a scale from 0 to 10 (0 substantially bleached/burnt, meristem dead/white; 10 entire plant green and undamaged): 500 g/ha, 11 DAT; for blch (% bleaching at the meristem relative to control plants) / ht (% height reduction relative to control plants): 100 g; for blch (% bleaching at the meristem relative to control plants) / ht (% height reduction relative to control plants) / percent damage at 6 DAT: WT
Outline: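 Wild-type Samsun tobacco grown from seed was planted in 3 inch pots, grown on under glasshouse conditions (about 24-27° C. day, 18-21° C. night, ~14 h photoperiod, ~65% humidity) and spray-treated alongside transgenic lines. Test chemicals were formulated in water with 0.2% X77 surfactant and applied by track sprayer at 200 l/ha. Height reduction, bleaching and damage were scored against unsprayed control plants of like size.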

[2] = system: tobacco plants expressing Pseudomonas fluorescens HPPD; assay: Glasshouse spray test, Pseudomonas HPPD transgenic tobacco; conditions: for % damage at 7 DAT: C2 line (Pseudomonas HPPD, T2), individual plants; for % damage observed 16 DAT: Pseudomonas HPPD T1
Description: Tobacco plants expressing the wild-type HPPD gene of Pseudomonas fluorescens strain 87-79 under operable control of the double enhanced 35S CMV promoter region, Nos3′ terminator and TMV translational enhancer were provided as detailed in Example 4 of WO0246387.
Seed of wild-type tobacco plants, C2 tobacco plants and of the T1 progeny of a further Arabidopsis-HST expressing tobacco line, D2 were planted out in 3 inch pots, grown on, sprayed with compounds 1.1, 2.30 and 3.6 at the rates shown in table 5. Percent damage scores were assessed at 7 DAT. Aside from the presumptive non-transgenic segregants the D2 line containing the Arabidopis HST expression construct offered the highest level of tolerance to the two HST herbicides with the Psuedomonas HPPD, C2 line, offering only marginal tolerance under the conditions of this test.
Transgenic lines of tobacco, soyabean and corn etc. can be engineered to express various heterologous HPPDs derived from, for example Avena (SEQ ID #26), Wheat (SEQ ID #27), Pseudomonas fluorescens (SEQ ID # 25) and Shewanella colwelliana (SEQ ID #28) as, for example, described in WO 02/46387.
Single copy events amongst the T1 plant lines are identified by their 3:1 segregation ratio (wrt kanamycin and or herbicide) and by quantitative RT-PCR. Seed from the thus selected T1 tobacco (var Samsun) lines are sown in 3 inch diameter pots containing 50% peat, 50% John Innes soil no 3. After growth to the 3 leaf stage, plants are sprayed, as described above, in order to test for herbicide tolerance relative to like-treated non-transgenic tobacco plants.
Control tobacco plants and transgenic T1 plants expressing either the Pseudomonas or the wheat HPPD gene are sprayed at 37, 111, 333 and 1000 g/ha rates of HST inhibitors and, for example, compound 2.3.
Plants are assessed and scored for % damage at 16 DAT.

weeds [3] = assay: Glasshouse weed control, HST inhibitors alone and with A22, post-emergence; conditions: 14 DAT, single replicate
Outline: (§1)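 Weeds grown in glasshouse trays (24-27 C day, 18-21 C night, ~15 h photoperiod) and track-sprayed in 0.2% X77 at […], pre-emergence or post-emergence at about 7-12 d. HPPD inhibitor A22 applied at 2 g/ha alone or mixed with HST herbicides. Damage scored 0–100% at 14 DAT; synergy calculated by Colby formula.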

weeds [4] = assay: Glasshouse weed control, HST inhibitors alone and with A22, pre-emergence; conditions: 14 DAT
Outline: as §1

[5] = WT tobacco, spray with 40 g of compound 1.1, 7 DAT
[6] = WT tobacco, spray with 40 g of compound 1.1, 14 DAT
[7] = 17 DAT, Chlamydomonas HST section
[8] = WT tobacco, spray with 500 g of compound 2.30, 7 DAT
[9] = WT tobacco, spray with 500 g of compound 2.30, 17 DAT

Q: For `Oc1c(Cl)c(F)nc(F)c1Cl` [Compound 1.1, haloxydine], which “% damage at 7 DAT” value ([1]; 25 gai/ha) is on record?
A: 75%

Q: What about the “% damaged” value ([1]; 250 g/ha, 8 DAT, w/t plants, 4-5 leaf) of the same compound?
A: 55% and 65%

Q: What about the “% damage” value ([1]; 250 g/ha, 25 DAT, w/t plants) of the same compound?
A: 50-70%

Q: What about the “blch: % bleaching at the meristem relative to control plants” value [1, 5] of the same compound?
A: 70% and 65% and 60% and 75% and 80%

Q: And the “ht: % height reduction relative to control plants” value [1, 5]?
A: 60% and 65% and 75% and 70%

Q: And the “blch: % bleaching at the meristem relative to control plants” value [1, 6]?
A: 40% and 70% and 60% and 75% and 65%

Q: And the “ht: % height reduction relative to control plants” value [1, 6]?
A: 60% and 70% and 75% and 65%

Q: And the “ht: % height reduction relative to control plants” value ([1]; WT tobacco, spray with 40 g of compound 1.1, 21 DAT)?
A: 70% and 80% and 85% and 60% and 55% and 65%

Q: What about the “% damage at 7 DAT” value ([2]; 25 gai/ha) of the same compound?
A: 75%

Q: What does the source list for `O=c1c(-c2c(F)ccc(F)c2Cl)c(O)c2nccnc2n1CC(F)F` [Compound 2.3]?
A: % damage observed 16 DAT ([1]; 37 g/ha): 17%; % damage observed 16 DAT ([1]; 111 g/ha): 40%; % damage observed 16 DAT ([1]; 333 g/ha): 47%; score on a scale from 0 to 10 (0 substantially bleached/burnt, meristem dead/white; 10 entire plant green and undamaged) ([1]; W/T_SD): 0; score on a scale from 0 to 10 (0 substantially bleached/burnt, meristem dead/white; 10 entire plant green and undamaged) ([1]; W/T_TC): 0; % damage observed 16 DAT ([1]; 1000 g/ha): 57%; % damage observed 16 DAT ([2]; 37 g/ha): 0%; % damage observed 16 DAT ([2]; 111 g/ha): 3%; % damage observed 16 DAT ([2]; 333 g/ha): 6%; % damage observed 16 DAT ([2]; 1000 g/ha): 10%; % control score, Obs (weeds [3]; BRAPL, 15.625 g/ha alone): 20%; % control score, Obs (weeds [3]; BRAPL, 62.5 g/ha alone): 50%; % control score, Obs (weeds [3]; BRAPL, 250 g/ha alone): 70%; % control score, Obs (weeds [3]; DIGSA, 15.625 g/ha alone): 2%; % control score, Obs (weeds [3]; DIGSA, 62.5 g/ha alone): 35%; % control score, Obs (weeds [3]; DIGSA, 250 g/ha alone): 45%; % control score, Obs (weeds [3]; ECHCG, 15.625 g/ha alone): 5%; % control score, Obs (weeds [3]; ECHCG, 62.5 g/ha alone): 30%; % control score, Obs (weeds [3]; ECHCG, 250 g/ha alone): 40%; % control score, Obs (weeds [3]; PANMI, 15.625 g/ha alone): 2%; % control score, Obs (weeds [3]; PANMI, 62.5 g/ha alone): 55%; % control score, Obs (weeds [3]; PANMI, 250 g/ha alone): 65%; % control score, Obs (weeds [3]; SETFA, 15.625 g/ha alone): 5%; % control score, Obs (weeds [3]; SETFA, 62.5 g/ha alone): 40%; % control score, Obs (weeds [3]; SETFA, 250 g/ha alone): 60%; % control score, Obs (weeds [3]; SIDSP, 15.625 g/ha alone): 10%; % control score, Obs (weeds [3]; SIDSP, 62.5 g/ha alone): 40%; % control score, Obs (weeds [3]; SIDSP, 250 g/ha alone): 55%; BRAPL Obs, % control score (weeds [4]; HST inhibitor rate 15.625 g/ha): 0%; BRAPL Obs, % control score (weeds [4]; HST inhibitor rate 62.5 g/ha): 2%; BRAPL Obs, % control score (weeds [4]; HST inhibitor rate 250 g/ha): 40%; DIGSA Obs, % control score (weeds [4]; HST inhibitor rate 15.625 g/ha): 0%; DIGSA Obs, % control score (weeds [4]; HST inhibitor rate 62.5 g/ha): 0%; DIGSA Obs, % control score (weeds [4]; HST inhibitor rate 250 g/ha): 40%; ECHCG Obs, % control score (weeds [4]; HST inhibitor rate 15.625 g/ha): 0%; ECHCG Obs, % control score (weeds [4]; HST inhibitor rate 62.5 g/ha): 10%; ECHCG Obs, % control score (weeds [4]; HST inhibitor rate 250 g/ha): 50%; PANMI Obs, % control score (weeds [4]; HST inhibitor rate 15.625 g/ha): 0%; PANMI Obs, % control score (weeds [4]; HST inhibitor rate 62.5 g/ha): 0%; PANMI Obs, % control score (weeds [4]; HST inhibitor rate 250 g/ha): 50%; SETFA Obs, % control score (weeds [4]; HST inhibitor rate 15.625 g/ha): 0%; SETFA Obs, % control score (weeds [4]; HST inhibitor rate 62.5 g/ha): 5%; SETFA Obs, % control score (weeds [4]; HST inhibitor rate 250 g/ha): 30%; SIDSP Obs, % control score (weeds [4]; HST inhibitor rate 15.625 g/ha): 0%; SIDSP Obs, % control score (weeds [4]; HST inhibitor rate 62.5 g/ha): 0%; SIDSP Obs, % control score (weeds [4]; HST inhibitor rate 250 g/ha): 20%

Q: With `CC(C)C(=O)Oc1c(-c2c(F)ccc(Br)c2Cl)c(=O)n(CC(F)F)c2nccnc12` [Compound 2.30] as the compound, how does the “blch (% bleaching at the meristem relative to control plants)” value ([1]; 7 DAT, Arabidopsis HST section) read?
A: 85% and 70% and 75% and 80%

Q: And the “ht (% height reduction relative to control plants)” value ([1]; 7 DAT, Arabidopsis HST section)?
A: 80% and 85% and 75%

Q: What about the “blch (% bleaching at the meristem relative to control plants)” value ([1]; 7 DAT, wheat HPPD section) of the same compound?
A: 85% and 70% and 75% and 80%

Q: What about the “ht (% height reduction relative to control plants)” value ([1]; 7 DAT, wheat HPPD section) of the same compound?
A: 80% and 85% and 75%

Q: And the “blch (% bleaching at the meristem relative to control plants)” value [1, 7]?
A: 85% and 70% and 75% and 80%

Q: And the “ht (% height reduction relative to control plants)” value [1, 7]?
A: 80% and 85% and 75%

Q: And the “ht (% height reduction relative to control plants)” value ([1]; 21 DAT, wheat HPPD section)?
A: 95% and 90% and 75% and 80%

Q: And the “ht (% height reduction relative to control plants)” value ([1]; 26 DAT, Arabidopsis HST section)?
A: 95% and 90% and 75% and 80%

Q: What about the “ht (% height reduction relative to control plants)” value ([1]; 26 DAT, Chlamydomonas HST section) of the same compound?
A: 95% and 90% and 75% and 80%

Q: What about the “percent damage at 6 DAT” value ([1]; 150 g/ha, reps) of the same compound?
A: 70%

Q: What about the “% damage at 7 DAT” value ([1]; 150 gai/ha) of the same compound?
A: 75% and 80% and 85%

Q: And the “% damage at 7 DAT” value ([1]; 300 gai/ha)?
A: 75% and 70% and 80%

Q: And the “% damage at 7 DAT” value ([1]; 450 gai/ha)?
A: 70% (2×) and 75%

Q: And the herbicide % damage ([1]; Compound 2.30, 150 g/ha, 14 DAT, WT control, reps)?
A: 60% and 70% and 75%

Q: What about the “blch: % bleaching at the meristem relative to control plants” value [1, 8] of the same compound?
A: 70% and 75% and 80%

Q: And the “ht: % height reduction relative to control plants” value [1, 8]?
A: 85% and 90%

Q: What about the “blch: % bleaching at the meristem relative to control plants” value [1, 9] of the same compound?
A: 80% and 70% and 75%

Q: And the “ht: % height reduction relative to control plants” value [1, 9]?
A: 90% and 85%

Q: What about the “ht: % height reduction relative to control plants” value ([1]; WT tobacco, spray with 500 g of compound 2.30, 26 DAT) of the same compound?
A: 70% and 85% and 100% and 90% and 80%

Q: What about the “% damage at 7 DAT” value ([2]; 150 gai/ha) of the same compound?
A: 90% and 70% and 80% (2×)

Q: And the “% damage at 7 DAT” value ([2]; 300 gai/ha)?
A: 85%

Q: And the “% damage at 7 DAT” value ([2]; 450 gai/ha)?
A: 65% and 70% and 85% (2×)

Q: `CS(=O)(=O)c1ccc(C(=O)C2C(=O)CCCC2=O)c([N+](=O)[O-])c1` [Mesotrione, mesotrione, reference compound] was tested. Which “Damage % 5 DAT” value ([1]; 10 g/ha, 5 DAT, wt plants) did it give?
A: 55% and 50% and 60%

Q: And the “% damage observed 16 DAT” value ([1]; 37 g/ha)?
A: 66%

Q: What about the “percent damage at 6 DAT” value ([1]; 100 g/ha, reps) of the same compound?
A: 80% and 70%

Q: And the “% damage observed 16 DAT” value ([1]; 111 g/ha)?
A: 57%

Q: What about the “% damage observed 16 DAT” value ([1]; 333 g/ha) of the same compound?
A: 57%

Q: And the “% damage observed 16 DAT” value ([1]; 1000 g/ha)?
A: 54%

Q: And the “ht (herbicidal damage)” value ([1]; WT tobacco, 15 g/ha of mesotrione, 21 DAT)?
A: 90 and 85 and 75

Q: And the “% damage observed 16 DAT” value ([2]; 37 g/ha)?
A: 3%

Q: And the “% damage observed 16 DAT” value ([2]; 111 g/ha)?
A: 3%

Q: And the “% damage observed 16 DAT” value ([2]; 333 g/ha)?
A: 43%

Q: And the “% damage observed 16 DAT” value ([2]; 1000 g/ha)?
A: 67%
